Assay results reported in the kinase profiling compilation of Christmann-Franck et al. (2016).

Legend:
Test in all cases: radiometric filter-binding kinase assay
[1] = system: AKT2 (human), P31751 [S474D]
AURKB (human) = AURKB (human) (UniProt Q96GD4)
CAMKK2 (human) = CAMKK2 (human) (UniProt Q96RR4)
CSNK1G2 (human) = CSNK1G2 (human) (UniProt P78368)
CaMK1 (human) = CaMK1 (human) (UniProt Q14012)
EPHA4 (human) = EPHA4 (human) (UniProt P54764)
EPHB3 (human) = EPHB3 (human) (UniProt P54753); settings: compound 10.0 µM
EPHB4 (human) = EPHB4 (human) (UniProt P54760)
IKBKB (human) = IKBKB (human) (UniProt O14920); settings: compound 1.0 µM
INSR (human) = INSR (human) (UniProt P06213)
INSRR (human) = INSRR (human) (UniProt P14616)
IRAK1 (human) = IRAK1 (human) (UniProt P51617)
IRAK4 (human) = IRAK4 (human) (UniProt Q9NWZ3)
MAP3K1 (human) = MAP3K1 (human) (UniProt Q13233)
Chain of MAP3K1 (human) (Q13233 whole entry, looked up): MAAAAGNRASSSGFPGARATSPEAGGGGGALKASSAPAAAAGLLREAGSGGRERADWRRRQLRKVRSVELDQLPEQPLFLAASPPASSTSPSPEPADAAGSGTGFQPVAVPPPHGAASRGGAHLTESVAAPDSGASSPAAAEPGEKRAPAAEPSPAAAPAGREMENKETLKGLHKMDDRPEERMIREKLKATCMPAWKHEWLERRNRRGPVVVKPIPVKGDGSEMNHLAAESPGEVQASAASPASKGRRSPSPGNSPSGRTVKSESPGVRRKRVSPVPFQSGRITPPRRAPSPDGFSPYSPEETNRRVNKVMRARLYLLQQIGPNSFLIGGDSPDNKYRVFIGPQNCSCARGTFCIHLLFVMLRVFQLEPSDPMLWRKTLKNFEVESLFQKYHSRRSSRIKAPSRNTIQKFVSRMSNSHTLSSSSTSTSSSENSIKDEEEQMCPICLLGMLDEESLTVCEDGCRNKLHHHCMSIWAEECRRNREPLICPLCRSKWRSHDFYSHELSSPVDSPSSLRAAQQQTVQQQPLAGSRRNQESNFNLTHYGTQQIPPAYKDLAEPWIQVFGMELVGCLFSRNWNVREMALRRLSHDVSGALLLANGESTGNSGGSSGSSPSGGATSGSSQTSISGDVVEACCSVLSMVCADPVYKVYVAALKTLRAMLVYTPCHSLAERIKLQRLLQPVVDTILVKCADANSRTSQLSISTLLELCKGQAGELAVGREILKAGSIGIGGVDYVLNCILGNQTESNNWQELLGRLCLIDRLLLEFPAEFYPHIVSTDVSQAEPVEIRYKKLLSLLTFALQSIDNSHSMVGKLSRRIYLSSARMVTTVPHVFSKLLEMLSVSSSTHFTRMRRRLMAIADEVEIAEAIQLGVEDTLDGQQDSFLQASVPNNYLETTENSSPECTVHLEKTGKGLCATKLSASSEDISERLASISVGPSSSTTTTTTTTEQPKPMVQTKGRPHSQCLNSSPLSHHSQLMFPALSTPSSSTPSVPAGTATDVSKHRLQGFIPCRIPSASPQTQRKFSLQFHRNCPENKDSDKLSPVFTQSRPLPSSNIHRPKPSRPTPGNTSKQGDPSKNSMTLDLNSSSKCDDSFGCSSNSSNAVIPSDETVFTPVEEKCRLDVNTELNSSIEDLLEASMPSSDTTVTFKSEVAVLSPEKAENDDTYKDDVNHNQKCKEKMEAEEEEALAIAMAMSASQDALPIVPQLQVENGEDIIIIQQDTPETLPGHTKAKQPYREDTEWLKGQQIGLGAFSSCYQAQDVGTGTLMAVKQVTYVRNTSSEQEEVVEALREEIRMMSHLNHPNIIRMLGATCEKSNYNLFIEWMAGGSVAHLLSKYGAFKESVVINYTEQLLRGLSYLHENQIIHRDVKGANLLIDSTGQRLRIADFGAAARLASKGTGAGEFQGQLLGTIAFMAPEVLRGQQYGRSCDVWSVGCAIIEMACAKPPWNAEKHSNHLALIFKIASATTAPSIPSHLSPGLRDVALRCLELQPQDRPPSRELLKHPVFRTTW

MAP3K11 (human) = MAP3K11 (human) (UniProt Q16584)
MAPK3 (human) = MAPK3 (human) (UniProt P27361)
Chain of MAPK3 (human) (P27361 whole entry, looked up): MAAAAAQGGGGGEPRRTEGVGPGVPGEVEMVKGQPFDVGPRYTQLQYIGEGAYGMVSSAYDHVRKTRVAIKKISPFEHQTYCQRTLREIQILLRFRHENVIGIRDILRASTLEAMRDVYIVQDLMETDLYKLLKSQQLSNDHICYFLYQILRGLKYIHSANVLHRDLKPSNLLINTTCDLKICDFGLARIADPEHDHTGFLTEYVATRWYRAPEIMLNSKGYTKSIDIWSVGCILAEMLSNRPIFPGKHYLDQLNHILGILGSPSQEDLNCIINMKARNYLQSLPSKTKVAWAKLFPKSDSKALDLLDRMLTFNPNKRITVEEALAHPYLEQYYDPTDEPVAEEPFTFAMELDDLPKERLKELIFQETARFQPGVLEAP

MARK3 (human) = MARK3 (human) (UniProt P27448)
MST4 (human) = MST4 (human) (UniProt Q9P289)
MYLK (human) = MYLK (human) (UniProt Q15746)
NEK2 (human) = NEK2 (human) (UniProt P51955)
NEK6 (human) = NEK6 (human) (UniProt Q9HC98)
Chain of NEK6 (human) (Q9HC98 whole entry, looked up): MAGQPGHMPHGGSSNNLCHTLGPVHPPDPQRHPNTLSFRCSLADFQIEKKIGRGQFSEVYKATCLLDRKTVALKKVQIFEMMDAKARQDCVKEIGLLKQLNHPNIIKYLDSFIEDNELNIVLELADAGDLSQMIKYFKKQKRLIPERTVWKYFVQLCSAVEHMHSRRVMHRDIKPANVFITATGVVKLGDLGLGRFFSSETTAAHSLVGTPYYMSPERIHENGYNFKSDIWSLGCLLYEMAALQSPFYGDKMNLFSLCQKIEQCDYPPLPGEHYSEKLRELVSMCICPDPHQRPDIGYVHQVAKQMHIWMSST

NTRK1 (human) = NTRK1 (human) (UniProt P04629); settings: compound 10.0 µM
NUAK1 (human) = NUAK1 (human) (UniProt O60285)
[2] = system: PAK2 (human), Q13177 [T402E]
PAK6 (human) = PAK6 (human) (UniProt Q9NQU5)
PAK7 (human) = PAK7 (human) (UniProt Q9P286); settings: compound 1.0 µM
PKN2 (human) = PKN2 (human) (UniProt Q16513)
PRKCA (human) = PRKCA (human) (UniProt P17252)
PRKCG (human) = PRKCG (human) (UniProt P05129)
TESK1 (human) = TESK1 (human) (UniProt Q15569)
Chain of TESK1 (human) (Q15569 whole entry, looked up): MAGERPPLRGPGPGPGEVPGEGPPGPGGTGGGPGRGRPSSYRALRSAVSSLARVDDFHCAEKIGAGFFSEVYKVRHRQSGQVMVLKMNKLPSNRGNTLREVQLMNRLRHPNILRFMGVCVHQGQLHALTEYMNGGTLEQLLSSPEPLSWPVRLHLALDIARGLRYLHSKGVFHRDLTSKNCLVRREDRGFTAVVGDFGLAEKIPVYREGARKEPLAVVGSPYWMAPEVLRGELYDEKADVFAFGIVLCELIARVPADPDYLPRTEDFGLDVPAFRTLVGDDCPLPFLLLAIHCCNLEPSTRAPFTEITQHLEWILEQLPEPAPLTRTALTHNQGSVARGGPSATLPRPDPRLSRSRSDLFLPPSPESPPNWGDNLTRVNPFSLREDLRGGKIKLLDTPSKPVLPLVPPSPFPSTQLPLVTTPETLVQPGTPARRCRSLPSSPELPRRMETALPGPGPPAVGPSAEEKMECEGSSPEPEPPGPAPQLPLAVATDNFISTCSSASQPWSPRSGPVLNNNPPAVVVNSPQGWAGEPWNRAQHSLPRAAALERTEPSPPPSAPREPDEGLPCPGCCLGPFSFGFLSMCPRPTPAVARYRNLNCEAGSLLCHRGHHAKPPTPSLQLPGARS

TTBK1 (human) = TTBK1 (human) (UniProt Q5TCY1)
TTBK2 (human) = TTBK2 (human) (UniProt Q6IQ55)
ULK2 (human) = ULK2 (human) (UniProt Q8IYT8)

Chain of EPHA4 (human) (P54764 whole entry, looked up): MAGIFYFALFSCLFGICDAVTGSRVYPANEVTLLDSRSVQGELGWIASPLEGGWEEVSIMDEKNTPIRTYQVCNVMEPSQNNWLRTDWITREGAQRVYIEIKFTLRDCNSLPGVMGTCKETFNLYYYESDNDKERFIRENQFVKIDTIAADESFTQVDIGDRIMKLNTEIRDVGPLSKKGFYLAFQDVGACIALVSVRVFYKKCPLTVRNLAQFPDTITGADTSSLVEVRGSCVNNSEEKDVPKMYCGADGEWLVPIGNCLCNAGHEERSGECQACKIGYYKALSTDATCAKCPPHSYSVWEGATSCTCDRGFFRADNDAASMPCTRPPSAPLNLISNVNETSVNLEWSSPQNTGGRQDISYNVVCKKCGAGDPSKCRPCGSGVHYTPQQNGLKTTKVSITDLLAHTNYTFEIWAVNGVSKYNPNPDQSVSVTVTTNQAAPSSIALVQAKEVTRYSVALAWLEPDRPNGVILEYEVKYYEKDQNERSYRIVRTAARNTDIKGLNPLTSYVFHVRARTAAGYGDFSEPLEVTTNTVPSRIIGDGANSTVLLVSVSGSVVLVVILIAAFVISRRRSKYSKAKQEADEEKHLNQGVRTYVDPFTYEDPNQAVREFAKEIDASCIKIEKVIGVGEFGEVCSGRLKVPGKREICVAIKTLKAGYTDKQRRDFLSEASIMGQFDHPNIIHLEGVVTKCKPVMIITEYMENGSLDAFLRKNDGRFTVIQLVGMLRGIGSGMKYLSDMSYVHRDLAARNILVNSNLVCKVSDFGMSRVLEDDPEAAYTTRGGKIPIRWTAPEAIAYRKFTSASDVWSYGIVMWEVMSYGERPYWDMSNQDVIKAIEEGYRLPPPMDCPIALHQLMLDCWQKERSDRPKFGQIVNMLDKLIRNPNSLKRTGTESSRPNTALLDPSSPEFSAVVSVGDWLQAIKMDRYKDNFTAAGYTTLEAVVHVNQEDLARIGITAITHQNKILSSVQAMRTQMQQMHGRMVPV
Chain of CaMK1 (human) (Q14012 whole entry, looked up): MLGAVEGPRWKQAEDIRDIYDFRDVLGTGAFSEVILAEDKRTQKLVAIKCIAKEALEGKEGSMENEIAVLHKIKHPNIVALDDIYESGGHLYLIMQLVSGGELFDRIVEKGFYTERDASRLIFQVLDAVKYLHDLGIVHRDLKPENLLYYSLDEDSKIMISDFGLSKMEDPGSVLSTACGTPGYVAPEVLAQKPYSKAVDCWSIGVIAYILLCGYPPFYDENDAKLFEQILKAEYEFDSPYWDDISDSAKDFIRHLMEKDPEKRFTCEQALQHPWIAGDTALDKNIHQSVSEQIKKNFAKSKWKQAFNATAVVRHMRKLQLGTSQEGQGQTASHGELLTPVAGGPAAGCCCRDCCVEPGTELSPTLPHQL

**Q.** What does the source list for CNc1nc(Nc2ccc(C(=O)N3CCOCC3)cc2OC)ncc1Cl?
**A.** residual activity ([1]; compound 1.0 µM): 95%; residual activity ([1]; compound 10.0 µM): 64%; residual activity (AURKB (human); compound 1.0 µM): 83%; residual activity (AURKB (human); compound 10.0 µM): 42%; residual activity (CAMKK2 (human); compound 1.0 µM): 52%; residual activity (CAMKK2 (human); compound 10.0 µM): 31%; residual activity (CSNK1G2 (human); compound 1.0 µM): 96%; residual activity (CSNK1G2 (human); compound 10.0 µM): 93%; residual activity (CaMK1 (human); compound 1.0 µM): 85%; residual activity (CaMK1 (human); compound 10.0 µM): 66%; residual activity (EPHA4 (human); compound 1.0 µM): 100%; residual activity (EPHA4 (human); compound 10.0 µM): 94%; residual activity (EPHB3 (human)): 101%; residual activity (EPHB4 (human); compound 1.0 µM): 94%; residual activity (EPHB4 (human); compound 10.0 µM): 113%; residual activity (IKBKB (human)): 82%; residual activity (INSR (human); compound 1.0 µM): 86%; residual activity (INSR (human); compound 10.0 µM): 50%; residual activity (INSRR (human); compound 1.0 µM): 126%; residual activity (INSRR (human); compound 10.0 µM): 97%; residual activity (IRAK1 (human); compound 1.0 µM): 84%; residual activity (IRAK1 (human); compound 10.0 µM): 83%; residual activity (IRAK4 (human); compound 1.0 µM): 90%; residual activity (IRAK4 (human); compound 10.0 µM): 86%; residual activity (MAP3K1 (human); compound 1.0 µM): 93%; residual activity (MAP3K1 (human); compound 10.0 µM): 98%; residual activity (MAP3K11 (human); compound 1.0 µM): 75%; residual activity (MAP3K11 (human); compound 10.0 µM): 43%; residual activity (MAPK3 (human); compound 1.0 µM): 95%; residual activity (MAPK3 (human); compound 10.0 µM): 104%; residual activity (MARK3 (human); compound 1.0 µM): 91%; residual activity (MARK3 (human); compound 10.0 µM): 78%; residual activity (MST4 (human); compound 1.0 µM): 101%; residual activity (MST4 (human); compound 10.0 µM): 106%; residual activity (MYLK (human); compound 1.0 µM): 83%; residual activity (MYLK (human); compound 10.0 µM): 55%; residual activity (NEK2 (human); compound 1.0 µM): 63%; residual activity (NEK2 (human); compound 10.0 µM): 90%; residual activity (NEK6 (human); compound 1.0 µM): 73%; residual activity (NEK6 (human); compound 10.0 µM): 69%; residual activity (NTRK1 (human)): 87%; residual activity (NUAK1 (human); compound 1.0 µM): 43%; residual activity (NUAK1 (human); compound 10.0 µM): 20%; residual activity ([2]; compound 1.0 µM): 97%; residual activity ([2]; compound 10.0 µM): 105%; residual activity (PAK6 (human); compound 1.0 µM): 90%; residual activity (PAK6 (human); compound 10.0 µM): 98%; residual activity (PAK7 (human)): 88%; residual activity (PKN2 (human); compound 1.0 µM): 102%; residual activity (PKN2 (human); compound 10.0 µM): 92%; residual activity (PRKCA (human); compound 1.0 µM): 66%; residual activity (PRKCA (human); compound 10.0 µM): 87%; residual activity (PRKCG (human); compound 1.0 µM): 93%; residual activity (PRKCG (human); compound 10.0 µM): 108%; residual activity (TESK1 (human); compound 1.0 µM): 90%; residual activity (TESK1 (human); compound 10.0 µM): 83%; residual activity (TTBK1 (human); compound 1.0 µM): 88%; residual activity (TTBK1 (human); compound 10.0 µM): 91%; residual activity (TTBK2 (human); compound 1.0 µM): 115%; residual activity (TTBK2 (human); compound 10.0 µM): 97%; residual activity (ULK2 (human); compound 1.0 µM): 97%; residual activity (ULK2 (human); compound 10.0 µM): 84%
